Measured values from BindingDB's records for doi:10.1021/jm701275z (University of Athens, 2008).

Biological target: Angiotensin-converting enzyme (Homo sapiens, UniProt P12821)
Assay: Enzyme Inhibition Assay
Conditions: pH 6.8; 25 °C
Experimental: Continuous assays were performed by recording the fluorescence increase at 405 nm (excitation@ 320 nm) induced by the cleavage of fluorogenic substrate, using 96-well nonbinding surface plates. Fluorescence signals were monitored using a Fluoroscan Ascent photon counter spectrophotometer (Thermo-Labsystems, Courtaboeuf, France) equipped with a temperature control device and a plate shaker. The substrate and enzyme concentrations for the experiments were chosen so as to remain well below 10% of substrate utilization and to observe initial rates. For each inhibitor, percentage inhibition was determined in triplicate experiments at five inhibitor concentrations, chosen to observe a 20-80% range of inhibition. Ki values were determined using the method proposed by Horovitz and Leviski, as described in Proc. Natl. Acad. Sci. U.S.A. 1987, 84, 6654.

Chain of Angiotensin-converting enzyme (P12821 whole entry): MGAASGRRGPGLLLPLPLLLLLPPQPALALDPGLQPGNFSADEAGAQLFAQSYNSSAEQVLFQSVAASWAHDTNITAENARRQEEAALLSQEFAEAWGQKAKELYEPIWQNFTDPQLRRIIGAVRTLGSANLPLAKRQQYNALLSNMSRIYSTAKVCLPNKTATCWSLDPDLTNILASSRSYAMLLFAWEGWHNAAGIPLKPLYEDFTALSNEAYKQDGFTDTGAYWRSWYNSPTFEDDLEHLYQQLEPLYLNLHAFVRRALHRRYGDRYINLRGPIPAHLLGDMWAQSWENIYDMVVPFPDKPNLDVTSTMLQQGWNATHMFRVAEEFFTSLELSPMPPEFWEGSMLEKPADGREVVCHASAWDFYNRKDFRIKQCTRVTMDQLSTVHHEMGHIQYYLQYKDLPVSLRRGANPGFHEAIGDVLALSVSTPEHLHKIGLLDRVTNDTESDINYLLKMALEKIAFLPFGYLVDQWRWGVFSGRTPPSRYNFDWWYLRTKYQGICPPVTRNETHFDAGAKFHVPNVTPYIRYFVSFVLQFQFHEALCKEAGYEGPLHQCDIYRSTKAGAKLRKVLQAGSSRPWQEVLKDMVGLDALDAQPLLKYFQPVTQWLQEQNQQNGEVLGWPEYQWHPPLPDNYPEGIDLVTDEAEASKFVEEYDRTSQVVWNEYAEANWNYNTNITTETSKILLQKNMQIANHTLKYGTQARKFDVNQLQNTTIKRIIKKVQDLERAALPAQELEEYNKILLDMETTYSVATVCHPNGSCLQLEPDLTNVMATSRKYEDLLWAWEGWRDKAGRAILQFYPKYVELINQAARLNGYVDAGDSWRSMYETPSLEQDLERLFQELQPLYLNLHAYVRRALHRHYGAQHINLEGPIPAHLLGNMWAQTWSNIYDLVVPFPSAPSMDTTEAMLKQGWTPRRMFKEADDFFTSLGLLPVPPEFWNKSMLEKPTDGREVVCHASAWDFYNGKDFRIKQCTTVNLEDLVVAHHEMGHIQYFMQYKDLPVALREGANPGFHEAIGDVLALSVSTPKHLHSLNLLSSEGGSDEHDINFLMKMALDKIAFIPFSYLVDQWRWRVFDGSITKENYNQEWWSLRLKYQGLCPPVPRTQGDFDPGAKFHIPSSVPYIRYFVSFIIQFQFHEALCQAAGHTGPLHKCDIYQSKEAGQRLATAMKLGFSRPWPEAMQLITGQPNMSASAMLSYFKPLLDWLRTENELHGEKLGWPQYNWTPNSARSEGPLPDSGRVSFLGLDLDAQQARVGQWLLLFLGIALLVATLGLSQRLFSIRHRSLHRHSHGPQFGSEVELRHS

| Ki [µM] | Compound |
| --- | --- |
| > 10 | CC(=O)NC(Cc1c[nH]cn1)C(=O)N1CCCC1P(=O)(O)CC(Cc1ccccc1)C(=O)O (centres undefined) [The second fraction of the HPLC chromatogram.] |
| > 10 | CC(=O)NC(CC(C)C)C(=O)N1CCCC1P(=O)(O)CC(Cc1ccccc1)C(=O)O (centres undefined) [The second fraction of the HPLC chromatogram.] |
| > 10 | CC(=O)NC(Cc1c[nH]cn1)C(=O)N1CCCC1P(=O)(O)CC(Cc1cc(-c2ccccc2)no1)C(=O)O (centres undefined) [3-({1-[2-acetamido-3-(1H-imidazol-4-yl)propanoyl]pyrrolidin-2-yl}(hydroxy)phosphoryl)-2-[(3-phenyl-1,2-oxazol-5-yl)methyl]propanoic acid] |
| > 10 | CC(=O)NC(CC(C)C)C(=O)N1CCCC1P(=O)(O)CC(Cc1cc(-c2ccccc2)no1)C(=O)O (centres undefined) [3-{[1-(2-acetamido-4-methylpentanoyl)pyrrolidin-2-yl](hydroxy)phosphoryl}-2-[(3-phenyl-1,2-oxazol-5-yl)methyl]propanoic acid] |
